How the values were obtained:
peritoneum = details: cited from earlier work
cultured cells = experiment: in vitro inhibition of cell growth (ICG) in cultured cells by heat sterilised NAG solutions; type: cell-based
Source text: Experiments in which measurements of the percentage of inhibition of cell growth (ICG) and fluorescence have been made at varying NAG concentrations, and also at varying pH values, during terminal heat sterilisation are illustrated in FIGS. 1-4. The results of the experiments imply that the concentration of the amino sugar/sugars should be optimised.
(§1) A simple, reliable and known way to study the cytotoxicity of substances or of medical fluids is to test proliferation as in vitro inhibition of cell growth (ICG) in cultured cells. Another method to get a rough estimation of the amount of amino sugars that is rearranged is measurement of the fluorescence.
More precisely, from the graph in FIG. 1 it can be seen that the inhibition of cell growth reaches a maximum with sterilisation of a solution containing about 5% NAG. With increasing NAG concentration the inhibition of cell growth decreases.
The bar diagram in FIG. 2 illustrates the effect of increased NAG concentration at different pH values during terminal heat sterilisation.

[1] = fluorescence of terminally heat sterilised NAG containing solution; type: physicochemical; details: FIG. 3; excitation at 350 nm, emission of 430 nm
Source text: as §1
The lowest fluorescence is seen at around pH 4.

[2] = pH change of the solution during sterilisation; type: physicochemical
Source text: NAG and other amino sugars have a major difference from glucose and glucose-like compounds by having one amino group and possibly an acetyl group coupled to the glucose ring.

[3] = analysis of degradation products (3-DG, 3,4-DGE) in heat sterilised solutions by HPLC; type: physicochemical; details: heat sterilised NAG solutions
Source text: This cytotoxicity depends on the formation of toxic degradation products from said amino sugars. […] This fact has not been known previously and forms the basis for the present invention. It should be noted that the decomposition pattern for an amino sugar solution during heat sterilisation follows specific Maillard reactions giving several different toxic decomposition products. The decomposition pattern differs for e.g. a glucose solution during heat sterilisation, wherein different decomposition products are formed. This difference is illustrated in FIGS. 5a-5d, showing chromatograms when analysing 3-DG and 3,4-DGE in a NAG solution and in a glucose solution, respectively. The difference in degradation is likely due to that the NAG molecules contains groups that allows the Maillard reaction to take place and therefore create a large number of degradation products not seen in a glucose solution.

[4] = tested on: human peritoneal mesothelial cells and fibroblasts; details: Breborowicz et al 1998; cited from earlier work

Row | pH at which fluorescence is lowest [1] | change of pH of the solution during sterilisation [2] | Compound | function of the peritoneum as a dialysis membrane (peritoneum; Wieczorowska et al 1995, fluid supplemented with exogenous hyaluronan) | inhibition of cell growth with increasing NAG concentration (cultured cells; FIG. 1, above the maximum at about 5% NAG) | NAG concentration during sterilisation at which inhibition of cell growth reaches a maximum (cultured cells; FIG. 1, terminal heat sterilisation) | inhibition of cell growth, effect of NAG concentration during sterilisation (cultured cells; FIG. 2, 30% versus 1.5% NAG, for all three pH values) | percentage inhibition of cell growth, effect of pH during sterilisation (cultured cells; FIG. 2, pH 3.0 versus pH 5.5 and 7.2) | optimal pH of sterilisation from an in vitro toxicological point of view (cultured cells; NAG containing solution, higher or lower pH gives higher percentage of inhibited growth) | cytotoxicity after heat sterilisation (cultured cells; amino sugars, e.g. NAG, in conventional medical solutions) | known glucose degradation products found [3] | production of hyaluronan and sulphated glycosaminoglycans [4] | effect on the peritoneum of dialysis solution supplemented with N-acetylglucosamine (peritoneum; Wu et al 1998, chronic peritoneal dialysis)
1 | – | – | hyaluronan [reference compound] | better preserved | – | – | – | – | – | – | – | – | –
2 | ~4 | increases during sterilisation | CC(=O)N[C@H]1C(O)O[C@H](CO)[C@@H](O)[C@@H]1O (stereo partly drawn) [NAG, N-acetylglucosamine] | – | decreases | about 5% | lower after a terminal heat sterilisation at a NAG concentration of 30% than at a NAG concentration of 1.5% | lower after terminal heat sterilisation at a pH of 3.0 than at a pH of 5.5 and 7.2 | 2.5-3.5 | increased cytotoxicity | none of the known glucose degradation products has been found | rapidly stimulates | causes accumulation of glucosaminoglycans in the peritoneal interstitium

— patent US20060046975A1, “Method for preparing a medical solution for the manufacture of a medicament for peritoneal dialysis” (priority 2002, published 2006)
